Test results taken from article PMC10254045, “Elaboration of the Effective Multi-Target Therapeutic Platform for the Treatment of Alzheimer’s Disease Based on Novel Monoterpene-Derived Hydroxamic Acids” (International Journal of Molecular Sciences, 2023).
Where two headings read alike, the source gives them in different places.

Columns and labels:
[1] = biological target: T1, HDAC6 (Homo sapiens, UniProt Q9UBN7); assay: Fluorimetric measurement of HDAC6 activity (FLUOR DE LYS kit); type: biochemical
T1 construct: purchased Enzo Life Sciences
T1 sequence (Q9UBN7 1-1215): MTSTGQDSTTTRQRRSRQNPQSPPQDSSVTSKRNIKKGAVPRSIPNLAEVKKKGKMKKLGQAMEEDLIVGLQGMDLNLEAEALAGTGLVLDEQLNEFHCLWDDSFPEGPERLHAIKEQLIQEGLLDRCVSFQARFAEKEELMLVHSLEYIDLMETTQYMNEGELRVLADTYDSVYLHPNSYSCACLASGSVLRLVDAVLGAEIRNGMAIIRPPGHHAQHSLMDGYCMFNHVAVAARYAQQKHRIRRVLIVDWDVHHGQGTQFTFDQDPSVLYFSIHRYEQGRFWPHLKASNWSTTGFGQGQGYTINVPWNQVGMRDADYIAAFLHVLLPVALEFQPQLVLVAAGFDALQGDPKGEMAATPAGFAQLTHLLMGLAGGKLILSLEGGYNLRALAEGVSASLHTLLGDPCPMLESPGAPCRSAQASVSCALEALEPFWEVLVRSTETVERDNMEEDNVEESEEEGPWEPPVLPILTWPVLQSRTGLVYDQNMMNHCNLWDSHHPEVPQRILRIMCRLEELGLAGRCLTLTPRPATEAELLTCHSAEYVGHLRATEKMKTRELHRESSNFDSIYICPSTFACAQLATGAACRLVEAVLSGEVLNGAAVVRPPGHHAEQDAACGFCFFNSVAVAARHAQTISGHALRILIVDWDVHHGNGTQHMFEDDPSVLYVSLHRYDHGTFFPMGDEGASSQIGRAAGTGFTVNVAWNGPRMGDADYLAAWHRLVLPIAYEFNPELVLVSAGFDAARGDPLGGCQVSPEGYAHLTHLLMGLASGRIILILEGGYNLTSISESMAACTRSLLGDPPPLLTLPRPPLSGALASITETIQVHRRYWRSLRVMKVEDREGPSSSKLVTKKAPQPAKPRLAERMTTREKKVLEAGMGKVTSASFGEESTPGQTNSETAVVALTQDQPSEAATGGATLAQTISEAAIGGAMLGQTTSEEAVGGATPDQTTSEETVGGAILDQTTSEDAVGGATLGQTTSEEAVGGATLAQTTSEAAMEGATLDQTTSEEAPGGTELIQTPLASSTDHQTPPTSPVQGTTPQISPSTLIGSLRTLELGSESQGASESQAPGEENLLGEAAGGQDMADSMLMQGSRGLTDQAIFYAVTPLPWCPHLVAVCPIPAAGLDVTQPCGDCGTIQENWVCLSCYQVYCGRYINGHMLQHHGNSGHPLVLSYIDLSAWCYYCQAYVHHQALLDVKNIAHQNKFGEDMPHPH

[2] = DPPH radical scavenging activity; conditions: Trolox equivalent; compounds and Trolox 100 µM
From the text: (§1) DPPH is a stable chromogen radical, which is widely used to assess the antioxidant activity of biological objects, in particular when searching for potential therapeutic agents used to maintain the redox balance in the body and treat pathologies associated with the action of free radicals. In turn, the oxygen radical absorbance capacity (ORAC) analysis is based on the removal by potential antioxidants of peroxyl radicals generated by AAPH (2,2’-axobis-2-methyl-propanimidamide, dihydrochloride), preventing the degradation of the fluorescein probe.
The measurement of the antiradical activity of synthesized hydroxamic acids was carried out using the method described in [150]. The studied compounds were introduced into the wells of a 96-well black tablet (the final concentration was 100 microns), after which a freshly prepared solution of 2,2-diphenyl-1-picrylhydrazyl (Sigma Aldrich, St. Louis, Missouri, USA) was added. After the incubation time had elapsed, the DPPH radical-scavenging activity was measured using a multifunctional Cytation™3 tablet analyzer (BioTek Instruments, Inc., Winooski, VT, USA) at λ = 517 nm by the difference in the reduction of the DPPH radical peak between control samples containing an equivalent volume of solvent and samples with the substances under study.

[3] = Oxygen radical absorbance capacity (ORAC); conditions: Trolox equivalent; compounds and Trolox 100 µM, AAPH 12 mM
From the text: as §1
The analysis of the absorption capacity of oxygen radicals was performed as described in [151], with some modifications. Trolox (Sigma Aldrich, St. Louis, MI, USA) was used as a standard antioxidant. The studied compounds were introduced into the holes of a 96-hole black tablet with a transparent bottom with Trolox (25 µL; the final concentration was 100 µM) and fluorescein (150 µL; the final concentration was 80 nM, Sigma Aldrich, St. Louis, MI, USA). The resulting mixture was shaken and incubated for 30 min at 37 °C. After a 30-min incubation period, a solution of 2,2’-azobis (2-amidinopropane) dihydrochloride (AAPH) (25 µL; final concentration of 12 mM, Sigma Aldrich, St. Louis, MI, USA) was quickly introduced into all wells of the tablet. The tablet was immediately placed in a multifunctional tablet analyzer Cytation™ 3 (BioTek Instruments, Inc., Winooski, VT, USA). The fluorescence intensity was recorded for 300 min at λex = 480 nm, λem = 520 nm with an interval of every 5 min. In the same experiment, calibration solutions for the reference antioxidant Trolox were used to confirm the validity of the use of this method (0, 6.25, 12.5, 25, 50 and 100 µM).

[4] = biological target: T2, β-amyloid peptide 1-42 (Aβ1-42) (Homo sapiens, UniProt P05067); assay: Thioflavin T fluorescent analysis of Aβ1-42 aggregation; type: biochemical; conditions: 48 h, compounds 100 µM, Thioflavin T 10 µM, 48 h registration; read-out: prevention of the aggregation of Aβ1-42
T2 construct: the pathological form of β-amyloid peptide 1-42 (Sigma Aldrich); purchased Sigma Aldrich
From the text: The aggregation process of β-amyloid peptide 1-42 (Aβ1-42), caused by hydrophobic interactions of peptide monomers and, as a consequence, the formation of the most toxic polymorphic structure-oligomeric fragments of Aβ, was detected using the fluorescent dye Thioflavin T (Figure 4a). This method is the most widely used for selective staining and the identification of amyloid aggregates, which is confirmed by a large number of works. Fluorescence analysis using Thioflavin T made it possible to monitor the aggregation process of the pathological form of β-amyloid peptide 1-42 (Sigma Aldrich, St. Louis, MI, USA). The experimental protocol was carried out similarly to that described in [58] with some modifications. The registration of changes in the fluorescence of thioflavin T (10 µM, Sigma Aldrich, St. Louis, MI, USA) was performed on a multifunctional tablet analyzer Cytation™3 (BioTek Instruments, Inc., Winooski, VT, USA) at λex = 450 nm, λem = 480 nm. The fluorescence intensity of the solution without Aβ1-42 was subtracted from the fluorescence values of solutions containing protein, due to the need to subtract the background fluorescence.

[5] = Cell viability, MTT test; type: cell-based; conditions: human, SH-SY5Y neuroblastoma cells, 24-h exposure, read-out: IC50 cytotoxic action
Description: The culture of human neuroblastoma cells (defined as SH-SY5Y) was cultured in DMEM with the addition of embryonic bovine serum (10%), 2 mM glutamine (DiaM, Moscow, Russia) and penicillin-streptomycin (100 U/Ml–100 µg/mL, PanEco, Moscow, Russia) in conditions of 5% CO2 in the air at 37 °C. Upon reaching 80% confluence, cells in the amount of 1 × 10^4 were placed in 96-well transparent plates and incubated under the same conditions for 24 h. After the incubation time, the cells were exposed to a 24-h exposure to various concentrations of hydroxamic acids dissolved in dimethyl sulfoxide (range from 1 to 100 µM). An equivalent volume of solvent was used as a control (final DMSO content = 1%).
Cell survival analysis was performed using MTT test. To do this, 3-(4,5-dimethylthiazol-2-yl)-2,5-diphenyltetrazolium bromide (MTT, 5 mg/mL, DiaM, Moscow, Russia) was introduced into all wells and incubated at 37 °C for 2 h to restore metabolically active cells of the yellow tetrazolium salt MTT to purple formazane crystals. The resulting formazane was then re-suspended in 200 µL DMSO per well. The optical density was recorded using a multifunctional Cytation™3 flatbed analyzer (BioTek Instruments, Inc., Winooski, VT, USA) at λ = 530 nm.

[6] = HDAC6, values as listed in Table S1 beside docking score, read-out: IC50

T2 sequence (P05067 672-713 limits assumed): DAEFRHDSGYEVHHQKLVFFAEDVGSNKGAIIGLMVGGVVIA

IC50 [1, 6] [µM]	inhibition at 100 µM [4] [%]	melting point [°C]	IC50 ([1]; Table 1, read-out: HDAC6-Inhibitory Effect, IC50) [µM]	Compound	DPPH value (TE) [2] [TE]	ORAC value (TE) [3] [TE]	IC50 at 24 h [5] [µM]
7.74	60.1	167.2 to 167.6		C=C(C)[C@@H]1CC=C(CNC(=O)c2ccc(/C=C/C(=O)NO)cc2)CC1 [Compound 38a, (S,E)-4-(3-(hydroxyamino)-3-oxoprop-1-en-1-yl)-N-((4-(prop-1-en-2-yl)cyclohex-1-en-1-yl)methyl)benzamide]	0.66	1.00	> 100
	63.9	160.3 to 164.9	4.78 ± 0.04	CC(C)c1ccc(CNC(=O)c2ccc(/C=C/C(=O)NO)cc2)cc1 [Compound 38b, (E)-4-(3-(hydroxyamino)-3-oxoprop-1-en-1-yl)-N-(4-isopropylbenzyl)benzamide]	0.79	1.04	> 100
8.03	≤ 40	108.6		CC1(C)[C@H]2CC[C@@H](CNC(=O)c3ccc(/C=C/C(=O)NO)cc3)[C@@H]1C2 [Compound 38c, N-(((1S,2R,5S)-6,6-dimethylbicyclo[3.1.1]heptan-2-yl)methyl)-4-((E)-3-(hydroxyamino)-3-oxoprop-1-en-1-yl)benzamide]	0.70	1.02	90.5 ± 2.9
